Measurements reported in patent US20100267561A1, “HERBICIDAL PYRIDAZINONE DERIVATIVES” (priority 2007, published 2010).

Key:
Assay in all cases: Test E pre-/postemergence plant response
Type in all cases: in vivo
[1] = test system: pitted morningglory (Ipomoea lacunosa); details: scale 0 to 100
Summary of the method: (§1)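 Ratings of 0 (no effect) through 100 (complete control) came from visual evaluation against untreated plants after a 14- to 21-day greenhouse period. Compound in a non-phytotoxic solvent/surfactant mixture was applied preemergence to seeds and postemergence to plants at the 1- to 4-leaf stage.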

[2] = test system: surinam grass (Brachiaria decumbens); details: scale 0 to 100
Summary of the method: as §1

[3] = test system: guineagrass (Panicum maximum); details: scale 0 to 100
Summary of the method: as §1

[4] = test system: annual bluegrass (Poa annua); details: scale 0 to 100
Summary of the method: as §1

[5] = test system: itchgrass (Rottboellia cochinchinensis); details: scale 0 to 100
Summary of the method: as §1

[6] = test system: barnyardgrass (Echinochloa crus-galli)
Summary of the method: as §1

[7] = test system: common mallow (Malva sylvestris); details: Postemergence, scale 0 to 100
Summary of the method: as §1

[8] = test system: goosegrass (Eleusine indica); details: scale 0 to 100
Summary of the method: as §1

[9] = test system: purple nutsedge (Cyperus rotundus); details: scale 0 to 100
Summary of the method: as §1

[10] = test system: bermudagrass (Cynodon dactylon); details: scale 0 to 100
Summary of the method: as §1

[11] = test system: green foxtail (Setaria viridis); details: scale 0 to 100
Summary of the method: as §1

[12] = test system: johnsongrass (Sorghum halepense); details: scale 0 to 100
Summary of the method: as §1

SMILES: CCc1cc(-c2ccc(C(F)(F)F)cc2)nn1-c1c(O)cnn(C)c1=O [Compound 11, 4-[5-ethyl-3-[4-(trifluoromethyl)phenyl]-1H-pyrazol-1-yl]-5-hydroxy-2-methyl-3(2H)-pyridazinone]
- Plant response rating, Morningglory ([1]; 4 g ai/ha, Postemergence): 0
- Plant response rating, Morningglory ([1]; 16 g ai/ha, Preemergence): 0
- Plant response rating, Morningglory ([1]; 31 g ai/ha, Preemergence): 0
- Plant response rating, Morningglory ([1]; Postemergence, 8 g ai/ha): 0
- Plant response rating, Morningglory ([1]; Postemergence, 16 g ai/ha): 0
- Plant response rating, Morningglory ([1]; Postemergence, 31 g ai/ha): 0
- Plant response rating, Morningglory ([1]; Preemergence, 4 g ai/ha): 0
- Plant response rating, Surinam Grass ([2]; 4 g ai/ha, Postemergence): 25
- Plant response rating, Surinam Grass ([2]; 16 g ai/ha, Preemergence): 95
- Plant response rating, Surinam Grass ([2]; 31 g ai/ha, Preemergence): 95
- Plant response rating, Surinam Grass ([2]; Postemergence, 8 g ai/ha): 80
- Plant response rating, Surinam Grass ([2]; Postemergence, 16 g ai/ha): 100
- Plant response rating, Surinam Grass ([2]; Postemergence, 31 g ai/ha): 100
- Plant response rating, Surinam Grass ([2]; Preemergence, 4 g ai/ha): 0
- Plant response rating, Guineagrass ([3]; 4 g ai/ha, Postemergence): 90
- Plant response rating, Guineagrass ([3]; 16 g ai/ha, Preemergence): 98
- Plant response rating, Guineagrass ([3]; 31 g ai/ha, Preemergence): 98
- Plant response rating, Guineagrass ([3]; Postemergence, 8 g ai/ha): 95
- Plant response rating, Guineagrass ([3]; Postemergence, 16 g ai/ha): 98
- Plant response rating, Guineagrass ([3]; Postemergence, 31 g ai/ha): 98
- Plant response rating, Guineagrass ([3]; Preemergence, 4 g ai/ha): 0
- Plant response rating, Bluegrass ([4]; 4 g ai/ha, Postemergence): 0
- Plant response rating, Bluegrass ([4]; 8 g ai/ha, Preemergence): 0
- Plant response rating, Bluegrass ([4]; 16 g ai/ha, Preemergence): 0
- Plant response rating, Bluegrass ([4]; 31 g ai/ha, Preemergence): 0
- Plant response rating, Bluegrass ([4]; Postemergence, 8 g ai/ha): 0
- Plant response rating, Bluegrass ([4]; Postemergence, 16 g ai/ha): 0
- Plant response rating, Bluegrass ([4]; Postemergence, 31 g ai/ha): 0
- Plant response rating, Bluegrass ([4]; Preemergence, 4 g ai/ha): 0
- Plant response rating, Itchgrass ([5]; 4 g ai/ha, Postemergence): 0
- Plant response rating, Itchgrass ([5]; 16 g ai/ha, Preemergence): 65
- Plant response rating, Itchgrass ([5]; 31 g ai/ha, Preemergence): 80
- Plant response rating, Itchgrass ([5]; Postemergence, 8 g ai/ha): 75
- Plant response rating, Itchgrass ([5]; Postemergence, 16 g ai/ha): 85
- Plant response rating, Itchgrass ([5]; Postemergence, 31 g ai/ha): 98
- Plant response rating, Itchgrass ([5]; Preemergence, 4 g ai/ha): 0
- Plant response rating, Barnyardgrass ([6]; 4 g ai/ha, Postemergence, scale 0 to 100): 90
- Plant response rating, Barnyardgrass ([6]; 8 g ai/ha, Preemergence, scale 0 to 100): 75
- Plant response rating, Barnyardgrass ([6]; 16 g ai/ha, Preemergence, scale 0 to 100): 90
- Plant response rating, Barnyardgrass ([6]; 31 g ai/ha, Preemergence, scale 0 to 100): 98
- Plant response rating, Barnyardgrass ([6]; Postemergence, 8 g ai/ha, scale 0 to 100): 100
- Plant response rating, Barnyardgrass ([6]; Postemergence, 16 g ai/ha, scale 0 to 100): 100
- Plant response rating, Barnyardgrass ([6]; Postemergence, 31 g ai/ha, scale 0 to 100): 100
- Plant response rating, Barnyardgrass ([6]; Preemergence, 4 g ai/ha, scale 0 to 100, 0 no effect, 100 complete control): 0
- Plant response rating, Mallow ([7]; 4 g ai/ha): 0
- Plant response rating, Mallow ([7]; 8 g ai/ha): 0
- Plant response rating, Mallow ([7]; 16 g ai/ha): 0
- Plant response rating, Mallow ([7]; 31 g ai/ha): 0
- Plant response rating, Goosegrass ([8]; 4 g ai/ha, Postemergence): 10
- Plant response rating, Goosegrass ([8]; 8 g ai/ha, Preemergence): 25
- Plant response rating, Goosegrass ([8]; 16 g ai/ha, Preemergence): 50
- Plant response rating, Goosegrass ([8]; 31 g ai/ha, Preemergence): 90
- Plant response rating, Goosegrass ([8]; Postemergence, 8 g ai/ha): 35
- Plant response rating, Goosegrass ([8]; Postemergence, 16 g ai/ha): 80
- Plant response rating, Goosegrass ([8]; Postemergence, 31 g ai/ha): 85
- Plant response rating, Goosegrass ([8]; Preemergence, 4 g ai/ha): 25
- Plant response rating, Nutsedge, Purple ([9]; 4 g ai/ha, Postemergence): 0
- Plant response rating, Nutsedge, Purple ([9]; 16 g ai/ha, Preemergence): 0
- Plant response rating, Nutsedge, Purple ([9]; 31 g ai/ha, Preemergence): 0
- Plant response rating, Nutsedge, Purple ([9]; Postemergence, 8 g ai/ha): 0
- Plant response rating, Bermudagrass ([10]; 4 g ai/ha, Postemergence): 10
- Plant response rating, Bermudagrass ([10]; 8 g ai/ha, Preemergence): 25
- Plant response rating, Bermudagrass ([10]; 16 g ai/ha, Preemergence): 40
- Plant response rating, Bermudagrass ([10]; 31 g ai/ha, Preemergence): 100
- Plant response rating, Bermudagrass ([10]; Postemergence, 8 g ai/ha): 35
- Plant response rating, Bermudagrass ([10]; Postemergence, 16 g ai/ha): 80
- Plant response rating, Bermudagrass ([10]; Postemergence, 31 g ai/ha): 95
- Plant response rating, Bermudagrass ([10]; Preemergence, 4 g ai/ha): 15
- Plant response rating, Foxtail, Green ([11]; 4 g ai/ha, Postemergence): 60
- Plant response rating, Foxtail, Green ([11]; 8 g ai/ha, Preemergence): 50
- Plant response rating, Foxtail, Green ([11]; 16 g ai/ha, Preemergence): 98
- Plant response rating, Foxtail, Green ([11]; 31 g ai/ha, Preemergence): 98
- Plant response rating, Foxtail, Green ([11]; Postemergence, 8 g ai/ha): 90
- Plant response rating, Foxtail, Green ([11]; Postemergence, 16 g ai/ha): 98
- Plant response rating, Foxtail, Green ([11]; Postemergence, 31 g ai/ha): 100
- Plant response rating, Foxtail, Green ([11]; Preemergence, 4 g ai/ha): 0
- Plant response rating, Johnsongrass ([12]; 4 g ai/ha, Postemergence): 95
- Plant response rating, Johnsongrass ([12]; 16 g ai/ha, Preemergence): 90
- Plant response rating, Johnsongrass ([12]; 31 g ai/ha, Preemergence): 95
- Plant response rating, Johnsongrass ([12]; Postemergence, 8 g ai/ha): 100
- Plant response rating, Johnsongrass ([12]; Postemergence, 16 g ai/ha): 100
- Plant response rating, Johnsongrass ([12]; Postemergence, 31 g ai/ha): 100
- Plant response rating, Johnsongrass ([12]; Preemergence, 4 g ai/ha): 75
